Measurements as given in US7829573B2, “Therapeutic combinations of antihypertensive and antiangiogenics agents” (AstraZeneca AB, priority 2000, dated 2010).
Where two headings read alike, the source gives them in different places.

Experiments:
[1] = Measurement of blood pressure in conscious rats by radio telemetry; assay type: in vivo, rat
Protocol: Blood pressure was measured using the Data Sciences radio-telemetry equipment (Data Sciences International, Saint Paul, Minn., USA). This provides a means of measuring the blood pressure (BP), heart rate and activity of a conscious unrestrained rat remotely. The measurements obtained using this system are free from the stresses induced by surgery and restraint. The system comprises a pressure transducer (TA11PA-C40) (the ‘implant’) implanted in the abdomen of a rat which transmits a radio signal indicating the pressure in the aorta of the animal. The signal is detected by a receiver RA1010) placed under the plastic cage which houses the animal.
Rats were anaesthetised with “Fluothane™” inhalation anaesthetic. The abdomen of the rat was shaved and the skin coated with a topical disinfectant. […]
Blood pressure data was recorded from each animal every 10 minutes throughout the study. […] This average day time blood pressure measurement for each rat was calculated over a 4 day period immediately prior to the commencement of compound dosing.
For the next 4 days (i.e. days 11 to 14 of compound dosing) the rats were dosed with the ACE inhibitor captopril at 30 mg/kg p.o. once daily in addition to the quinazoline compound. The average blood pressure of each rat was calculated daily and the difference between the daily calculated pressure and the starting pressure was expressed.

coronary arteries = conditions: dog, in vitro; cited from earlier work
[2] = conscious rats, VEGF 250 μg/kg; cited from earlier work
[3] = anaesthetised rats, 15 μg/kg bFGF; cited from earlier work

With `COc1cc2c(Nc3ccc(Br)cc3F)ncnc2cc1OCC1CCN(C)CC1` [4-(4-bromo-2-fluoroanilino)-6-methoxy-7-(1-methylpiperidin-4-ylmethoxy)quinazoline] the “effect on the diastolic blood pressure in rats” value ([1]; conscious male wistar rats, 12.5 mg/kg p.o. once daily for 10 days, 3 dosed rats and a control rat (FIG. 1)) was “increase in blood pressure”.
For VEGF, the “effect on coronary arteries” value (coronary arteries) is given as “dilate coronary arteries” and the “time to return to normal blood pressure” value [2] is given as at most 20 min.
In the case of `C[C@H](CS)C(=O)N1CCC[C@H]1C(=O)O` [captopril, reference compound], the “effect of addition of ACE inhibitor on the increase in blood pressure caused by the VEGF receptor tyrosine kinase inhibitor” value ([1]; captopril 30 mg/kg p.o. once daily on days 11 to 14 in addition to the quinazoline compound 12.5 mg/kg p.o.) was “reversed”.
For “bFGF: basic fibroblast growth factor, polypeptide with endothelial cell growth promoting activity”, the “time to return to normal blood pressure” value [3] is given as at most 30 min.
